Laboratory results from PMC6219798, “A novel decarboxylating amidohydrolase involved in avoiding metabolic dead ends during cyanuric acid catabolism in Pseudomonas sp. strain ADP” (PLoS ONE, 2018).

Legend:
AtzEG = target: T1, AtzEG (Pseudomonas sp. ADP, UniProt Q936X3); assay: GDH-coupled ammonia release at […] nm; assay type: biochemical; settings: substrate made in situ by AtzD from 1 mM cyanuric acid; 0.17 uM enzyme, 25 mM potassium phosphate pH 8.5
T1 construct: gene atzE; AtzE and AtzG co-expressed from pACYCDuet-1 in E. coli BL21(DE3); heterotetramer; with 1-carboxybiuret hydrolase subunit AtzG
T1 sequence (Q936X3 1-457): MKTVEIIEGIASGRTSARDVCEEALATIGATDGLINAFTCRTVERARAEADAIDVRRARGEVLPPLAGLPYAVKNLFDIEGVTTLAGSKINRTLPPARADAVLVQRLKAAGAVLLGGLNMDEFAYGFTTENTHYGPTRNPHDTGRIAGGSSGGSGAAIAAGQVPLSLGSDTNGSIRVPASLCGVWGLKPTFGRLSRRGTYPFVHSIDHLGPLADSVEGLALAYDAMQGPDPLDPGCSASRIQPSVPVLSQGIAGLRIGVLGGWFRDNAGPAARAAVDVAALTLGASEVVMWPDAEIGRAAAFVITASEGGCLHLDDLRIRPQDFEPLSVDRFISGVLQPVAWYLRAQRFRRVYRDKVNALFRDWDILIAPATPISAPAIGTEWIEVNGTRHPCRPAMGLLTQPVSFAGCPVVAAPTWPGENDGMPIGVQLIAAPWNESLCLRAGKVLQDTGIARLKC
T1 sequence (A0A384E126 1-68 partner): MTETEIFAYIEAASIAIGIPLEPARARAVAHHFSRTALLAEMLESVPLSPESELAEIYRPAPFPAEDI

AtzD = target: T2, AtzD (Pseudomonas sp. ADP, UniProt P58329); assay: UV absorbance at […] nm, ring opening; assay type: biochemical; settings: 12 uM AtzD, 1 mM cyanuric acid
T2 construct: His6-tagged, E. coli BL21(DE3), Ni-NTA purified; cloning described elsewhere
T2 sequence (P58329 1-363): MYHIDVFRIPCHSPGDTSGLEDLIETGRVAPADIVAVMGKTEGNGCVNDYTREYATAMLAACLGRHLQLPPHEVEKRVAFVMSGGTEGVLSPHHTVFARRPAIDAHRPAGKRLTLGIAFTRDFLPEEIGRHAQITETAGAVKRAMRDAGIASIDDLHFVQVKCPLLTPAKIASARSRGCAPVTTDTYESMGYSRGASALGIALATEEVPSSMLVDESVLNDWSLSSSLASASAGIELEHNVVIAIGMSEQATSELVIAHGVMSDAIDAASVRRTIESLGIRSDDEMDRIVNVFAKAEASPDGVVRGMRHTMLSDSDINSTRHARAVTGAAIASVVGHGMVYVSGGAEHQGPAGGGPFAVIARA

[1] = target: AtzH from Pseudomonas sp. strain ADP, his-tag removed (Pseudomonas sp. strain ADP); assay: SEC; size exclusion chromatography of AtzH after removal of the his-tag; Superdex preparation grade resin, 130 mL column, 25 mM HEPES, 200 mM NaCl, pH 7.5

## NC(=O)NC(=O)NC(=O)O [1-carboxybiuret]
AtzEG
  GDH-coupled ammonia release at 340 nm: The substrate for AtzEG (1-carboxybiuret) is unstable and was therefore produced in situ

## O=c1[nH]c(=O)[nH]c(=O)[nH]1 [cyanuric acid, 1,3,5-triazine-2,4,6-triol]
AtzD
  UV absorbance at 214 nm, ring opening: incubating AtzD and its substrate in the presence or absence of AtzH

## AtzH from Pseudomonas sp. strain ADP, his-tag removed (enzyme)
[1]
  stoichiometry N: 2
